{"source": "paper PMC12749811", "about": "(Nature Communications, 2025)", "key": {"[1]": {"system": "Cal09-WT virus", "type": "cell-based, influenza A(H1N1)pdm09 virus A/California/07/2009"}, "[2]": {"system": "Cal09-WT virus", "type": "cell-based, influenza A(H1N1)pdm09 virus A/California/07/2009", "remark": "listed apart in the source"}, "[3]": {"system": "A/Sichuan-Shunqing/SWL11211/2023", "type": "cell-based, influenza A(H1N1)pdm09 virus"}, "[4]": {"system": "A/Fujian-Licheng/SWL1661/2023", "type": "cell-based, influenza A(H1N1)pdm09 virus"}, "[5]": {"conditions": "in vivo; cited from earlier work"}}, "data": [{"smiles": "CCC(CC)[C@H](NC(C)=O)[C@@H]1[C@H](O)[C@@H](C(=O)O)C[C@H]1N=C(N)N", "note": "[peramivir]", "values": [{"measurement": "sensitivity in plaque-reduction assay", "setting": "[1]", "value": "remained fully sensitive"}]}, {"smiles": "CCOC(=O)C1=C[C@@H](OC(CC)CC)[C@H](NC(C)=O)[C@@H](N)C1", "note": "[oseltamivir]", "values": [{"measurement": "concentration at which virus replication was significantly inhibited", "setting": "[2]", "value": 0.1, "unit": "µM"}, {"measurement": "concentration at which plaque diameters were inhibited", "setting": "[1]", "value": 0.01, "unit": "µM"}, {"measurement": "oseltamivir sensitivity", "setting": "[3]", "value": "remained oseltamivir-sensitive"}, {"measurement": "oseltamivir sensitivity", "setting": "[4]", "value": "remained oseltamivir-sensitive"}, {"measurement": "average plasma concentration", "setting": "[5]", "value": 0.33, "unit": "µM"}]}, {"smiles": "CC(=O)N[C@H]1[C@H]([C@H](O)[C@H](O)CO)OC(C(=O)O)=C[C@@H]1N=C(N)N", "note": "[zanamivir]", "values": [{"measurement": "sensitivity in plaque-reduction assay", "setting": "[1]", "value": "remained fully sensitive"}]}, {"smiles": "O=C1c2c(O)c(=O)ccn2N([C@@H]2c3ccccc3SCc3c2ccc(F)c3F)[C@@H]2COCCN12", "note": "[baloxavir]", "values": [{"measurement": "sensitivity in plaque-reduction assay", "setting": "[1]", "value": "remained high sensitivity"}]}]}
